Reference: patent US20100160178A1, “SYSTEM AND METHOD FOR PRESENTING DNA BINDING SPECIFICITIES USING SPECIFICITY LANDSCAPES” (priority 2008, published 2010)
One block for each molecule: values may come before it.

Key:
DNA sequences = assay: Specificity landscapes of DNA-binding proteins (FIGS. 8-10); details: circular specificity landscape
[1] = system: duplex DNA microarray that displays the entire sequence space; assay: CSI (cognate site identifier) array and specificity landscape of the polyamide; assay type: binding
Description: (§1) CSI arrays can display the entire sequence space for about 2-10 variable base pair positions. Additionally, CSI arrays can display the entire sequence space for more than 10 base pair positions. Data relating to the binding affinities between the binding molecule and a sample set of DNA sequences (“N-mers”) has been obtained from the CSI DNA microarrays, in which every N-mer sequence is correlated to a fluorescent intensity value. The fluorescent intensity value indicates the amount of interaction between a specific N-mer and the DNA-binding molecule of interest and is proportional to binding affinity. The affinity value is the form of an equilibrium association constant (KA), or a KD value may be converted to KA by the relationship of KA=1/KD. Any biochemical/biophysical technique, other than DNA microarrays, can be used to obtain binding affinities, but these affinities must be related to a specific DNA sequence to be appropriate input for the specificity landscape.
This particular approach is an example of the data input to the specificity landscape algorithm. In particular, the present approach provides a comprehensive and unbiased understanding of the sequence-specificity of DNA binding molecules. Structural DNA variants are all examined to explore the importance of DNA structure on cognate site recognition by these ligands (data not shown). This particular example examines sequences and structural preferences of a small molecule polyamide (ImImPy*Py-γ-PyPyPyPy-β-Dp) designed to recognize the sequence 5′-W-W-G-G-W-W-W-3′ (W=A or T). […] The more distorted, or non-duplex, the DNA becomes the less affinity the polyamide has for that particular DNA sequence. Based upon previous knowledge of this polyamide, the specificity landscape unexpectedly uncovered unique insight into the polyamide relating to sequence and structural specificity of the polyamide-DNA interactions. […] The relative affinity of a particular sequence is represented by the height of the peak. The landscape provides a valuable tool to researchers looking for both the consensus sequences as well as those with the highest affinity.
Each sequence on the array is given a z-score which indicates the probability of a sequence being preferentially bound by the polyamide. As such, each sequence on the array has an intensity denoting the affinity of the polyamide to the sequence. The z-score is calculated using Equation Set 1. The sequences in the highest z-score bins, or with the highest intensities, fit the 5′-W-W-G-G-W-W-W-3′
Z=|intensity−average|/standard deviation Equation Set 1
The cognate site identifier array is a high through put approach for providing a comprehensive profile of the binding properties of DNA-binding molecules. CSI arrays display every permutation of a duplex DNA sequence on a microfabricated array. The CSI is a standard type array where each square (microarray feature) is assigned a specific nucleotide sequence, which includes a linker and a palindromic sequence with a 3-5 nucleotide turn in the middle. This palindromic sequence forms a double-stranded DNA region comprised of, for example, 8 base pairs that represents a specific permutation of an 8mer sequence. The central region of the sequence is buried, by example all or a subset of, 8 base pairs for a given 8-mer sequence. Approximately one million of the same sequences are provided for each square, each being one of the possible 8-mer sequences. A fluorescently labeled compound or antibody is included. […]

[2] = system: every possible 9-mer DNA sequence; assay: CSI array and specificity landscape of Nkx-2.5; assay type: binding
Description: as §1
The cognate site identifier array is a high through put approach for providing a comprehensive profile of the binding properties of DNA-binding molecules. CSI arrays display every permutation of a duplex DNA sequence on a microfabricated array. […]

- DNA sequence bound (DNA sequences): 5′-WGATAA-3′
Molecule: gata4: mouse protein gata4

- binding to non-B-form DNA bearing high affinity sequences ([1]; relative to the duplex): appreciable binding
Molecule: ImImPy*Py-γ-PyPyPyPy-β-Dp [polyamide]
- base preference at position 5 [1]: prefers a T at position 5
- DNA conformer preference ([1]; B-form duplex vs structural DNA variants): prefers double-stranded DNA
- affinity across permutations of the consensus motif WWGGWWW ([1]; innermost ring (Ring 1) of landscape): does not bind all the permutations of the consensus motif (WWGGWWW) with equal affinity
- positions of the motif where mutations are tolerated ([1]; one mismatch ring): tolerates mutations at positions 1 and 3

- DNA binding motif from specificity landscape [2]: TNAAGTG and NTAAGTG
- binding of sequences identical to motif TTAAGTG ([2]; relative intensities, all possible 9-mers): bind well
Molecule: Nkx-2.5: Nk2 transcription factor related, locus 5; earliest heart lineage marker; mouse DNA-binding protein

- DNA sequence bound (DNA sequences): 5′-ARGGG-3′
B1: msn2: yeast protein msn2 (protein, UniProt P33748 1-704, looked up)
Zinc finger protein MSN2: MTVDHDFNSEDILFPIESMSSIQYVENNNPNNINNDVIPYSLDIKNTVLDSADLNDIQNQETSLNLGLPPLSFDSPLPVTETIPSTTDNSLHLKADSNKNRDARTIENDSEIKSTNNASGSGANQYTTLTSPYPMNDILYNMNNPLQSPSPSSVPQNPTINPPINTASNETNLSPQTSNGNETLISPRAQQHTSIKDNRLSLPNGANSNLFIDTNPNNLNEKLRNQLNSDTNSYSNSISNSNSNSTGNLNSSYFNSLNIDSMLDDYVSSDLLLNDDDDDTNLSRRRFSDVITNQFPSMTNSRNSISHSLDLWNHPKINPSNRNTNLNITTNSTSSSNASPNTTTMNANADSNIAGNPKNNDATIDNELTQILNEYNMNFNDNLGTSTSGKNKSACPSSFDANAMTKINPSQQLQQQLNRVQHKQLTSSHNNSSTNMKSFNSDLYSRRQRASLPIIDDSLSYDLVNKQDEDPKNDMLPNSNLSSSQQFIKPSMILSDNASVIAKVATTGLSNDMPFLTEEGEQNANSTPNFDLSITQMNMAPLSPASSSSTSLATNHFYHHFPQQGHHTMNSKIGSSLRRRKSAVPLMGTVPLTNQQNNISSSSVNSTGNGAGVTKERRPSYRRKSMTPSRRSSVVIESTKELEEKPFHCHICPKSFKRSEHLKRHVRSVHSNERPFACHICDKKFSRSDNLSQHIKTHKKHGDI
